Experimental data: ChEMBL document CHEMBL4270586, “Novel hydrazido benzenesulfonamides-isatin conjugates: Synthesis, carbonic anhydrase inhibitory activity and molecular modeling studies” (Eur J Med Chem, 2018)

target: Carbonic anhydrase 9 (Homo sapiens, UniProt Q16790); assay: Inhibition of recombinant human carbonic anhydrase 9 incubated for 15 mins prior to testing by stopped flow CO2 hydration assay

Row | SMILES | Ki
1 | NS(=O)(=O)c1ccc(C(=O)NN=C2C(=O)Nc3ccc([N+](=O)[O-])cc32)cc1 | 23.8 nM
2 | Cc1ccc2c(c1)C(=NNC(=O)c1ccc(S(N)(=O)=O)cc1)C(=O)N2 | 197 nM
3 | Cc1cc(C)c2c(c1)C(=NNC(=O)c1ccc(S(N)(=O)=O)cc1)C(=O)N2 | 716 nM
4 | CCCN1C(=O)C(=NNC(=O)c2ccc(S(N)(=O)=O)cc2)c2ccccc21 | 30.1 nM
5 | NS(=O)(=O)c1ccc(C(=O)NN=C2C(=O)Nc3ccc(Br)cc32)cc1 | 101 nM
6 | NS(=O)(=O)c1ccc(C(=O)NN=C2C(=O)Nc3ccc(Cl)cc32)cc1 | 31.5 nM
7 | CCCCN1C(=O)C(=NNC(=O)c2ccc(S(N)(=O)=O)cc2)c2ccccc21 | 27.4 nM
8 | NS(=O)(=O)c1ccc(C(=O)NN=C2C(=O)Nc3ccccc32)cc1 | 174 nM
9 | COc1ccc2c(c1)C(=NNC(=O)c1ccc(S(N)(=O)=O)cc1)C(=O)N2 | 264 nM
10 | NS(=O)(=O)c1ccc(C(=O)NN=C2C(=O)Nc3ccc(F)cc32)cc1 | 32.3 nM

The remaining lines, values ahead:

Row | Ki | SMILES
11 | 25.2 nM | NS(=O)(=O)c1ccc(C(=O)NN=C2C(=O)N(Cc3ccccc3)c3ccccc32)cc1
12 | 148 nM | NS(=O)(=O)c1ccc(C(=O)NN=C2C(=O)N(Cc3ccc(F)cc3)c3ccccc32)cc1
13 | 8.9 nM | CCN1C(=O)C(=NNC(=O)c2ccc(S(N)(=O)=O)cc2)c2ccccc21
14 | 177 nM | CC(C)N1C(=O)C(=NNC(=O)c2ccc(S(N)(=O)=O)cc2)c2ccccc21
15 | 81.2 nM | Cc1ccc(CN2C(=O)C(=NNC(=O)c3ccc(S(N)(=O)=O)cc3)c3ccccc32)cc1
16 | 30.6 nM | CN1C(=O)C(=NNC(=O)c2ccc(S(N)(=O)=O)cc2)c2ccccc21
17 | 77.9 nM | C=CCN1C(=O)C(=NNC(=O)c2ccc(S(N)(=O)=O)cc2)c2ccccc21
18 | 17.7 nM | CCOC(=O)CN1C(=O)C(=NNC(=O)c2ccc(S(N)(=O)=O)cc2)c2ccccc21
